Measurements reported in PMC10518255, “A first-in-class pan-lysyl oxidase inhibitor impairs stromal remodeling and enhances gemcitabine response and survival in pancreatic cancer” (Nature Cancer, 2023).
“And” between values parts separate entries of the source, which are not always exact repeats. Identical values can stand only once.

Tests used:
[1] = tested on: F4/80; assay: Immunohistochemistry of end-point KPC tumors: macrophage infiltration; assay type: in vivo, mouse; conditions: KPC tumours at endpoint; individual replicate values (Extended Data 6G)
Procedure: All tissues or matrices, including patient TMAs, were fixed in 10% buffered formalin and embedded in paraffin. The 4-μm sections of samples were deparaffinized with xylene and rehydrated in graded ethanol washes. For immunohistochemistry, Bond Dewax Solution (AR9222) was used. Antigen retrieval was performed using Bond RX H2(30) protocol: HIER 30 min ER1 (citrate pH 6) OR ER2 (EDTA pH 9) at 100 °C. Slides were quenched in BOND Polymer Refine Detection (Leica Biosystems DS9800). […] Slides were digitized on an Aperio slide scanner and representative areas per tumor acquired and analyzed by researchers blinded to the conditions of the experiment.
Extended Data Fig. 6 PXS-5505 in combination with gemcitabine in a KPC model. a. Quantification of proliferating cells (Ki67 positive nuclear staining) in KPC tumors at end point, treated as indicated. 5 fields of view (500 μm × 500 μm) per mouse and 10 mice per cohort were scored. […] Quantification of percent coverage of αSMA positive staining in KPC tumors at end point, treated as indicated. 3 fields of view (1000 μm × 1000 μm) per mouse and 10 mice per cohort were scored. […] Quantification of percent coverage of PDGFR-ß positive staining in KPC tumors at end point, treated as indicated. 3 fields of view (1000 μm × 1000 μm) per mouse and 10 mice per cohort were scored. […] 3 fields of view (500 μm × 500 μm) per mouse and 10 mice per cohort were scored. […]

[2] = tested on: KPC PDAC tumors; assay: Picrosirius red staining of KPC tumors (Fig. 1g); assay type: in vivo, mouse; conditions: KPC tumour bearing mice, Gem 100 mg/kg twice weekly i.p. for 15 cycles, individual animals
From the text: Fig. 1 Characterization of LOX family in PDAC. a,b, Kaplan–Meier curves for 5-year overall survival for lysyl oxidase family scores in the APGI/ICGC (low, n = 90 patients; high, n = 89 patients) (a) and TCGA (low, n = 57 patients; high, n = 58 patients) (b) PDAC datasets. Lines represent upper and lower tertiles. The lysyl oxidase family expression score is weighted by the Cox proportional hazards model coefficients for each family member. P values determined by log-rank (Mantel–Cox) test. c, Representative images of picrosirius red stained tumor cores from APGI/ICGC tumor microarrays. […] P values determined by log-rank (Mantel–Cox) test. e, Human LOX and LOXL2 plasma concentrations in healthy (n = 30 patient samples) and patients with PDAC (n = 12 patient samples) determined by SiMoA. […] Scale bars, 100 μm. g, Quantitative comparison of picrosirius red staining in tumors from KPC tumor-bearing mice treated with either saline vehicle or gemcitabine (n = 10 biologically independent animals per group). […] Two-tailed P values determined by unpaired, nonparametric t-tests with a Mann–Whitney U-test correction (comparison between two groups). […]

## Cl.Cl.NC/C=C(\F)CS(=O)(=O)c1cccc2cccnc12.O [PXS-5505, (Z)-3-fluoro-4-(quinolin-8-ylsulfonyl)but-2-en-1-amine dihydrochloride monohydrate]
[1]
  macrophage infiltration (F4/80 positive staining): 5 and 7

## Nc1ccn([C@@H]2O[C@H](CO)[C@@H](O)C2(F)F)c(=O)n1 [Gem, gemcitabine]
[2]
  picrosirius red staining in tumours: 26.8678 and 24.1241 and 47.4949 and 47.2536 and 61.2999 and 20.5678 and 34.5947 and 25.1726 and 42.1276 and 82.533
